The subject of this assay is adult female mice (uterus, vagina). Description: Estrogen responsiveness bioassay in adult females (uterine wet weight, hyperemia, vaginal epithelial cytology). It is filed as in vivo, mouse. The following applies: for vaginal histology: after estradiol treatment; for increase in uterine wet weight: treated for three days, compared to untreated control.

In the case of `C[C@]12CC[C@@H]3c4ccc(O)cc4CC[C@H]3[C@@H]1CC[C@@H]2O` [estradiol], the vaginal histology result is recorded as “unaltered” (ER disrupted animals); “increase in number of cornified epithelial cells” (wild type and heterozygous animals). For the same molecule, under “ER disrupted animals, treatment for 4-6 hours”, the “uterine water imbibition or uterine hyperemia” value is recorded as “no uterine water imbibition or uterine hyperemia”. Moreover, the “increase in uterine wet weight” value (heterozygous animals) is given as 3-4 fold and the “increase in uterine wet weight” value (wild type animals) is 3-4 fold. In addition, the “increase in uterine weight or hyperemia” value (homozygous ER disrupted animals, three day bioassay) is recorded as “did not respond”. Besides, the uterine hyperemia entry (wild type and heterozygotes, three day bioassay) is on record as “became hyperemic”.

Source of the values: patent US5650550A, “Mutant mice having a deficit of functional estrogen receptors” (The United States of America as represented by the …, priority 1995, dated 1997).
